# ChEMBL document CHEMBL5346873, “Strategic modification of low-activity natural antimicrobial peptides confers antibacterial potential in vitro and in vivo” (Eur J Med Chem, 2023)
# Calls of active or inactive are those of the source. The rule behind the calls is not given here.
# Legend:
# [1] = Dermal toxicity in BALB/c mouse assessed as irritation at 125 mg/kg, TOPp measured after 48 hrs; format: organism-based; details: in vivo, topical_or_ocular
# Escherichia coli [2] = assay: Antibacterial activity against Escherichia coli incubated for 16 to 20 hrs; format: functional; details: time 16-20 hrs
# Acinetobacter baumannii [3] = assay: Additive antibacterial activity against Acinetobacter baumannii in presence of meropenem by checkerboard microtiter plate assay; format: functional
# Pseudomonas aeruginosa [4] = assay: Additive antibacterial activity against Pseudomonas aeruginosa assessed as meropenem MIC by checkerboard microtiter plate assay; format: functional
# Streptococcus agalactiae [5] = assay: Synergistic antibacterial activity against Streptococcus agalactiae in presence of doxycycline by checkerboard microtiter plate assay; format: functional
# Streptococcus iniae [6] = assay: Additive antibacterial activity against Streptococcus iniae in presence of meropenem by checkerboard microtiter plate assay; format: functional
# [7] = Hemolytic activity in human RBC at 100 ug/ml incubated for 1 hr; format: toxicity, cell-based, Erythrocyte; details: human red blood cells (erythrocytes), at 100 µg/mL, read-out: Activity
# Streptococcus iniae [8] = assay: Additive antibacterial activity against Streptococcus iniae assessed as fractional inhibitory concentration in presence of meropenem by checkerboard microtiter plate assay; format: functional
# Vibrio vulnificus [9] = assay: Bactericidal activity against Vibrio vulnificus 204 incubated overnight; format: functional
# Acinetobacter baumannii [10] = assay: Additive antibacterial activity against Acinetobacter baumannii assessed as meropenem MIC by checkerboard microtiter plate assay; format: functional
# Acinetobacter baumannii [11] = assay: Additive antibacterial activity against Acinetobacter baumannii assessed as fractional inhibitory concentration in presence of meropenem by checkerboard microtiter plate assay; format: functional
# Klebsiella aerogenes [12] = assay: Antibacterial activity against Enterobacter aerogenes incubated for 16 to 20 hrs; format: functional; details: time 16-20 hrs
# Vibrio vulnificus [13] = assay: Antibacterial activity against Vibrio vulnificus in presence of 10 ug/ml proteinase K; format: functional, organism-based
# Vibrio alginolyticus [14] = assay: Bactericidal activity against Vibrio alginolyticus incubated overnight; format: functional
# Enterococcus faecium = assay: Bactericidal activity against Enterococcus faecium incubated overnight; format: functional
# Vibrio harveyi [15] = assay: Bactericidal activity against Vibrio harveyi incubated overnight; format: functional
# Nakaseomyces glabratus = assay: Fungicidal activity against Candida glabrata incubated overnight; format: functional
# Streptococcus iniae [16] = assay: Antibacterial activity against Streptococcus iniae incubated for 16 to 20 hrs; format: functional; details: time 16-20 hrs
# Streptococcus iniae [17] = assay: Synergistic antibacterial activity against Streptococcus iniae in presence of doxycycline by checkerboard microtiter plate assay; format: functional
# Streptococcus iniae [18] = assay: Synergistic antibacterial activity against Streptococcus iniae assessed as fractional inhibitory concentration in presence of doxycycline by checkerboard microtiter plate assay; format: functional
# Vibrio vulnificus [19] = assay: Synergistic antibacterial activity against Vibrio vulnificus assessed as fractional inhibitory concentration in presence of meropenem by checkerboard microtiter plate assay; format: functional
# Vibrio vulnificus [20] = assay: Antibiofilm activity against Vibrio vulnificus V3 assessed as inhibition of biofilm formation at 25 to 100 ug/ml incubated for 24 hrs by crystal violet staining based assay; format: functional, organism-based; details: dose 25-100 µg/ml
# Candida tropicalis = assay: Antifungal activity against Candida tropicalis incubated for 16 to 20 hrs; format: functional; details: time 16-20 hrs
# Vibrio harveyi [21] = assay: Antibacterial activity against Vibrio harveyi incubated for 16 to 20 hrs; format: functional; details: time 16-20 hrs
# Vibrio vulnificus [22] = assay: Antibiofilm activity against Vibrio vulnificus V3 assessed as inhibition of biofilm formation at 25 ug/ml incubated for 24 hrs by crystal violet staining based assay; format: functional, organism-based; details: dose 25.0 µg/ml
# Cell membrane [23] = assay: Induction of membrane deformation in Vibrio vulnificus at 1 to 2 times MIC incubated for 30 mins by SEM analysis; format: subcellular
# Acinetobacter baumannii [24] = assay: Synergistic antibacterial activity against Acinetobacter baumannii assessed as fractional inhibitory concentration in presence of doxycycline by checkerboard microtiter plate assay; format: functional
# Vibrio vulnificus [25] = assay: Bactericidal activity against Vibrio vulnificus V1 incubated overnight; format: functional
# Vibrio vulnificus [26] = assay: Antibiofilm activity against Vibrio vulnificus 204 assessed as inhibition of biofilm formation at 50 to 100 ug/ml incubated for 24 hrs by crystal violet staining based assay; format: functional, organism-based; details: dose 50-100 µg/ml
# Vibrio vulnificus [27] = assay: Bactericidal activity against Vibrio vulnificus V3 incubated overnight; format: functional
# [28] = Dermal toxicity in BALB/c mouse assessed as morphological changes at 125 mg/kg, TOPp measured after 48 hrs; format: organism-based; details: in vivo, topical_or_ocular
# Enterococcus faecalis = assay: Bactericidal activity against Enterococcus faecalis incubated overnight; format: functional
# Streptococcus agalactiae [29] = assay: Synergistic antibacterial activity against Streptococcus agalactiae assessed as fractional inhibitory concentration in presence of meropenem by checkerboard microtiter plate assay; format: functional
# Pseudomonas aeruginosa [30] = assay: Bactericidal activity against Pseudomonas aeruginosa incubated overnight; format: functional
# Vibrio vulnificus [31] = assay: Antibacterial activity against Vibrio vulnificus 204 assessed as induction of resistance development by measuring fold increase in MIC measured after 15 passages; format: functional
# Klebsiella pneumoniae [32] = assay: Synergistic antibacterial activity against Klebsiella pneumoniae expressing NDM1 in presence of doxycycline by checkerboard microtiter plate assay; format: functional
# Salmonella enterica = assay: Antibacterial activity against Salmonella enterica incubated for 16 to 20 hrs; format: functional; details: time 16-20 hrs
# Streptococcus agalactiae [33] = assay: Antibacterial activity against Streptococcus agalactiae incubated for 16 to 20 hrs; format: functional; details: time 16-20 hrs
# Vibrio anguillarum [34] = assay: Antibacterial activity against Listonella anguillarum incubated for 16 to 20 hrs; format: functional; details: time 16-20 hrs
# Acinetobacter baumannii [35] = assay: Synergistic antibacterial activity against Acinetobacter baumannii assessed as doxycycline MIC by checkerboard microtiter plate assay; format: functional
# Klebsiella aerogenes [36] = assay: Synergistic antibacterial activity against Enterobacter aerogenes assessed as meropenem MIC by checkerboard microtiter plate assay; format: functional
# Vibrio vulnificus [37] = assay: Antibacterial activity against Vibrio vulnificus treated with preheated compounds; format: functional, organism-based
# Streptococcus iniae [38] = assay: Bactericidal activity against Streptococcus iniae incubated overnight; format: functional
# Vibrio vulnificus [39] = assay: Synergistic antibacterial activity against Vibrio vulnificus assessed as meropenem MIC by checkerboard microtiter plate assay; format: functional
# Vibrio anguillarum [40] = assay: Bactericidal activity against Listonella anguillarum incubated overnight; format: functional
# Cell membrane [41] = assay: Induction of membrane lysis in Vibrio vulnificus at 1 time MIC incubated for 1 hr by TEM analysis; format: subcellular
# Escherichia coli [42] = assay: Synergistic antibacterial activity against Escherichia coli in presence of meropenem by checkerboard microtiter plate assay; format: functional
# Klebsiella pneumoniae [43] = assay: Synergistic antibacterial activity against Klebsiella pneumoniae expressing NDM1 assessed as doxycycline MIC by checkerboard microtiter plate assay; format: functional
# Vibrio vulnificus [44] = assay: Antibacterial activity against Vibrio vulnificus V3 incubated for 16 to 20 hrs; format: functional; details: time 16-20 hrs
# Salmonella typhimurium = assay: Bactericidal activity against Salmonella typhimurium incubated overnight; format: functional, Salmonella enterica subsp. enterica serovar Typhimurium; details: Salmonella enterica
# Vibrio alginolyticus [45] = assay: Antibacterial activity against Vibrio alginolyticus incubated for 16 to 20 hrs; format: functional; details: time 16-20 hrs
# Escherichia coli [46] = assay: Synergistic antibacterial activity against Escherichia coli assessed as meropenem MIC by checkerboard microtiter plate assay; format: functional
# Klebsiella oxytoca = assay: Bactericidal activity against Klebsiella oxytoca incubated overnight; format: functional
# [47] = tested on: Staphylococcus haemolyticus; assay: Antibacterial activity against Staphylococcus haemolyticus incubated for 16 to 20 hrs; format: functional; details: time 16-20 hrs
# Streptococcus iniae [48] = assay: Additive antibacterial activity against Streptococcus iniae assessed as meropenem MIC by checkerboard microtiter plate assay; format: functional
# Vibrio vulnificus [49] = assay: Antibiofilm activity against Vibrio vulnificus 204 assessed as inhibition of biofilm formation at 25 ug/ml incubated for 24 hrs by crystal violet staining based assay; format: functional, organism-based; details: dose 25.0 µg/ml
# Cell membrane [50] = assay: Induction of outer membrane lysis in Vibrio vulnificus at 100 ug/ml by NPN-dye based fluorescence analysis; format: subcellular; details: dose 100.0 µg/ml
# Vibrio vulnificus [51] = assay: Antibiofilm activity against Vibrio vulnificus V1 assessed as inhibition of biofilm formation at 50 to 100 ug/ml incubated for 24 hrs by crystal violet staining based assay; format: functional, organism-based; details: dose 50-100 µg/ml
substance,measurement,setting,value
H-KKCIAKAILKKAKKLLKKLVNP-OH,Activity,[1],Non-Toxic
same,MIC,Escherichia coli [2],12.5 µg/mL
same,MIC,Acinetobacter baumannii [3],0.048 µg/mL
same,MIC,Pseudomonas aeruginosa [4],0.195 µg/mL
same,MIC,Streptococcus agalactiae [5],0.195 µg/mL
same,MIC,Streptococcus iniae [6],0.048 µg/mL
same,"hemolysis at 1 h, 100 ug/ml",[7],5.5%
same,FIC,Streptococcus iniae [8],0.51
same,MBC,Vibrio vulnificus [9],6.25 µg/mL
same,MIC,Acinetobacter baumannii [10],0.195 µg/mL
same,FIC,Acinetobacter baumannii [11],0.51
same,MIC,Klebsiella aerogenes [12],12.5 µg/mL
same,Activity,Vibrio vulnificus [13],inactive
same,MBC,Vibrio alginolyticus [14],6.25 µg/mL
same,MBC,Enterococcus faecium,> 100 µg/mL
same,MBC,Vibrio harveyi [15],25 µg/mL
same,MFC,Nakaseomyces glabratus,> 100 µg/mL
same,MIC,Streptococcus iniae [16],< 1.56 µg/mL
same,MIC,Streptococcus iniae [17],0.048 µg/mL
same,FIC,Streptococcus iniae [18],0.04
same,FIC,Vibrio vulnificus [19],0.14
same,Activity,Vibrio vulnificus [20],Active
same,MIC,Candida tropicalis,100 µg/mL
same,MIC,Vibrio harveyi [21],25 µg/mL
same,Activity,Vibrio vulnificus [22],inactive
same,Activity,Cell membrane [23],Active
same,FIC,Acinetobacter baumannii [24],0.07
same,MBC,Vibrio vulnificus [25],12.5 µg/mL
same,Activity,Vibrio vulnificus [26],Active
same,MBC,Vibrio vulnificus [27],12.5 µg/mL
same,Activity,[28],Non-Toxic
same,MBC,Enterococcus faecalis,> 100 µg/mL
same,FIC,Streptococcus agalactiae [29],0.07
same,MBC,Pseudomonas aeruginosa [30],50 µg/mL
same,fold change (FC),Vibrio vulnificus [31],<2
same,MIC,Klebsiella pneumoniae [32],3.12 µg/mL
same,MIC,Salmonella enterica,12.5 µg/mL
same,MIC,Streptococcus agalactiae [33],3.12 µg/mL
same,MIC,Vibrio anguillarum [34],50 µg/mL
same,MIC,Acinetobacter baumannii [35],0.003 µg/mL
same,MIC,Klebsiella aerogenes [36],0.003 µg/mL
same,Activity,Vibrio vulnificus [37],Active
same,MBC,Streptococcus iniae [38],< 1.56 µg/mL
same,MIC,Vibrio vulnificus [39],0.003 µg/mL
same,MBC,Vibrio anguillarum [40],50 µg/mL
same,Activity,Cell membrane [41],Active
same,MIC,Escherichia coli [42],0.39 µg/mL
same,MIC,Klebsiella pneumoniae [43],3.12 µg/mL
same,MIC,Vibrio vulnificus [44],12.5 µg/mL
same,MBC,Salmonella typhimurium,100 µg/mL
same,MIC,Vibrio alginolyticus [45],3.12 µg/mL
same,MIC,Escherichia coli [46],0.001 µg/mL
same,MBC,Klebsiella oxytoca,50 µg/mL
same,MIC,[47],< 1.56 µg/mL
same,MIC,Streptococcus iniae [48],0.195 µg/mL
same,Activity,Vibrio vulnificus [49],inactive
same,Activity,Cell membrane [50],Active
same,Activity,Vibrio vulnificus [51],Active
H-FKWKSVLKGVKGFVKGYF-OH,Activity,[1],Non-Toxic
same,MIC,Escherichia coli [2],6.25 µg/mL
same,MIC,Acinetobacter baumannii [3],0.048 µg/mL
same,MIC,Pseudomonas aeruginosa [4],0.195 µg/mL
same,MIC,Streptococcus agalactiae [5],0.097 µg/mL
same,MIC,Streptococcus iniae [6],0.024 µg/mL
same,"hemolysis at 1 h, 100 ug/ml",[7],26.5%
same,FIC,Streptococcus iniae [8],0.51
same,MBC,Vibrio vulnificus [9],6.25 µg/mL
same,MIC,Acinetobacter baumannii [10],0.195 µg/mL
same,FIC,Acinetobacter baumannii [11],0.51
same,MIC,Klebsiella aerogenes [12],12.5 µg/mL
same,Activity,Vibrio vulnificus [13],inactive
same,MBC,Vibrio alginolyticus [14],6.25 µg/mL
same,MBC,Enterococcus faecium,> 100 µg/mL
same,MBC,Vibrio harveyi [15],> 100 µg/mL
same,MFC,Nakaseomyces glabratus,> 100 µg/mL
same,MIC,Streptococcus iniae [16],< 1.56 µg/mL
same,MIC,Streptococcus iniae [17],0.024 µg/mL
same,FIC,Streptococcus iniae [18],0.04
same,FIC,Vibrio vulnificus [19],0.14
same,Activity,Vibrio vulnificus [20],Active
same,MIC,Candida tropicalis,50 µg/mL
same,MIC,Vibrio harveyi [21],> 100 µg/mL
same,Activity,Vibrio vulnificus [22],inactive
same,Activity,Cell membrane [23],Active
same,FIC,Acinetobacter baumannii [24],0.07
same,MBC,Vibrio vulnificus [25],12.5 µg/mL
same,Activity,Vibrio vulnificus [26],Active
same,MBC,Vibrio vulnificus [27],12.5 µg/mL
same,Activity,[28],Non-Toxic
same,MBC,Enterococcus faecalis,> 100 µg/mL
same,FIC,Streptococcus agalactiae [29],0.07
same,MBC,Pseudomonas aeruginosa [30],50 µg/mL
same,fold change (FC),Vibrio vulnificus [31],<2
same,MIC,Klebsiella pneumoniae [32],1.56 µg/mL
same,MIC,Salmonella enterica,12.5 µg/mL
same,MIC,Streptococcus agalactiae [33],3.12 µg/mL
same,MIC,Vibrio anguillarum [34],100 µg/mL
same,MIC,Acinetobacter baumannii [35],0.003 µg/mL
same,MIC,Klebsiella aerogenes [36],0.003 µg/mL
same,Activity,Vibrio vulnificus [37],Active
same,MBC,Streptococcus iniae [38],< 1.56 µg/mL
same,MIC,Vibrio vulnificus [39],0.003 µg/mL
same,MBC,Vibrio anguillarum [40],100 µg/mL
same,Activity,Cell membrane [41],Active
same,MIC,Escherichia coli [42],0.097 µg/mL
same,MIC,Klebsiella pneumoniae [43],1.56 µg/mL
same,MIC,Vibrio vulnificus [44],12.5 µg/mL
same,MBC,Salmonella typhimurium,12.5 µg/mL
same,MIC,Vibrio alginolyticus [45],3.12 µg/mL
same,MIC,Escherichia coli [46],0.001 µg/mL
same,MBC,Klebsiella oxytoca,25 µg/mL
same,MIC,[47],< 1.56 µg/mL
same,MIC,Streptococcus iniae [48],0.195 µg/mL
same,Activity,Vibrio vulnificus [49],inactive
same,Activity,Cell membrane [50],Active
same,Activity,Vibrio vulnificus [51],Active
